“And” between values parts separate entries of the source, which are not always exact repeats. Identical values can stand only once.
Molecular target: α-glucosidase
Assay: α-glucosidase inhibitory activity assay
Format: biochemical
Conditions: alpha-glucosidase 1 U/ml, P-NPG substrate, 37° C., pH 6.8
Method: An assay to measure α-glucosidase inhibitory activity of extract and fractions was carried out according to the standard method with minor modification. In a 96-well plate, reaction mixture containing 50 μl phosphate buffer (100 mM, pH=6. 8), 10 μl alpha-glucosidase (1 U/ml), and 20 μl of varying concentrations of extract and fractions (0.1, 0.2, 0.3, 0.4, and 0.5 mg/ml) was preincubated at 37° C. for 15 min. Then, 20 μl P-NPG (5 mM) were added as a substrate and incubated further at 37° C. for 20 min. The reaction was stopped by adding 50 μl Na2 CO3 (0.1 M). The absorbance of the released p-nitrophenol was measured at 405 nm using Multiplate Reader. Acarbose at various concentrations (0.1-0.5 mg/ml) was included as a standard. Without test substance was set up in parallel as a control and each experiment was performed in triplicates. The results were expressed as percentage inhibition, which was calculated using the formula,
Inhibitory activity (%)=(1−As/Ac)×100 • where, As is the absorbance in the presence of test substance and Ac is the absorbance of control.

O=C(O[C@@H]1Cc2c(O)cc(O)cc2O[C@@H]1c1cc(O)c(O)c(O)c1)c1cc(O)c(O)c(O)c1 [EGCG, epigallocatechin gallate]
IC50 values of α-glucosidase: 138 µg/mL and 138.6 µg/mL
